Test results reported in PubChem BioAssay AID2060614 (Molecular Pharmacology Branch, DTP, NCI, 2025).

Test system: 598228-144-R-J1-PDC complex spheroids, viability
Experiment: Anticancer human tumor 598228-144-R-J1-PDC patient-derived serous endometrial adenocarcinoma cell line growth inhibition [CLK]
Details: for IC50: curve of first compound; for viability, T/C: stronger effect = lower value
Method in brief: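 Patient-derived tumor cells grown as complex spheroids with HUVEC endothelial cells and mesenchymal stem cells, treated with drug combinations. Concentrations descend in half-log steps from near clinical Cmax, or from 10 microM if Cmax unknown.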

[1] = second compound 0.0316 µM, first compound 0.0316 µM
[2] = second compound 0.0316 µM, first compound 0.1 µM
[3] = second compound 0.0316 µM, first compound 0.316 µM
[4] = second compound 0.0316 µM, first compound 1 µM
[5] = second compound 0.0316 µM, first compound 3.16 µM
[6] = second compound 0.0316 µM, first compound 10 µM
[7] = second compound 0.1 µM, first compound 0.0316 µM
[8] = second compound 0.1 µM, first compound 0.1 µM
[9] = second compound 0.1 µM, first compound 0.316 µM
[10] = second compound 0.1 µM, first compound 1 µM
[11] = second compound 0.1 µM, first compound 3.16 µM
[12] = second compound 0.1 µM, first compound 10 µM
[13] = second compound 0.316 µM, first compound 0.0316 µM
[14] = second compound 0.316 µM, first compound 0.1 µM
[15] = second compound 0.316 µM, first compound 0.316 µM
[16] = second compound 0.316 µM, first compound 1 µM
[17] = second compound 0.316 µM, first compound 3.16 µM
[18] = second compound 0.316 µM, first compound 10 µM
[19] = second compound 1 µM, first compound 0.0316 µM
[20] = second compound 1 µM, first compound 0.1 µM
[21] = second compound 1 µM, first compound 0.316 µM
[22] = second compound 1 µM, first compound 1 µM
[23] = second compound 1 µM, first compound 3.16 µM
[24] = second compound 1 µM, first compound 10 µM
[25] = second compound 3.16 µM, first compound 0.0316 µM
[26] = second compound 3.16 µM, first compound 0.1 µM
[27] = second compound 3.16 µM, first compound 0.316 µM
[28] = second compound 3.16 µM, first compound 1 µM
[29] = second compound 3.16 µM, first compound 3.16 µM
[30] = second compound 3.16 µM, first compound 10 µM
[31] = second compound 10 µM, first compound 0.0316 µM
[32] = second compound 10 µM, first compound 0.1 µM
[33] = second compound 10 µM, first compound 0.316 µM
[34] = second compound 10 µM, first compound 1 µM
[35] = second compound 10 µM, first compound 3.16 µM
[36] = second compound 10 µM, first compound 10 µM
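Further: spheroids exposed to compounds for seven days before readout.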
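Wherever viability, T/C is given: 100% = DMSO vehicle control wells.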

## CC(C)CC(NC(=O)C(Cc1ccccc1)NC(=O)c1cnccn1)B(O)O (stereo unspecified) + CN1CCN(c2cc(C(=O)Nc3cc4cc(-c5cnn(C)c5)ccc4cn3)ccn2)CC1
Second compound 0.0316 µM
  IC50: 4.12 nM
Second compound 0.1 µM
  IC50: 2.54 nM
Second compound 0.316 µM
  IC50: < 0.949 nM
Second compound 1 µM
  IC50: < 0.949 nM
Second compound 3.16 µM
  IC50: < 0.949 nM
Second compound 10 µM
  IC50: < 0.949 nM
Second compound 0.0316 µM, first compound 0.000949 µM
  viability, T/C: 124%
Second compound 0.0316 µM, first compound 0.003 µM
  viability, T/C: 68.6%
Second compound 0.0316 µM, first compound 0.00949 µM
  viability, T/C: 0.89%
Second compound 0.0316 µM, first compound 0.03 µM
  viability, T/C: 0.39%
Second compound 0.0316 µM, first compound 0.0949 µM
  viability, T/C: 0.34%
Second compound 0.0316 µM, first compound 0.3 µM
  viability, T/C: 0.29%
Second compound 0.1 µM, first compound 0.000949 µM
  viability, T/C: 137%
Second compound 0.1 µM, first compound 0.003 µM
  viability, T/C: 35.3%
Second compound 0.1 µM, first compound 0.00949 µM
  viability, T/C: 0.57%
Second compound 0.1 µM, first compound 0.03 µM
  viability, T/C: 0.37%
Second compound 0.1 µM, first compound 0.0949 µM
  viability, T/C: 0.35%
Second compound 0.1 µM, first compound 0.3 µM
  viability, T/C: 2.83%
Second compound 0.316 µM, first compound 0.000949 µM
  viability, T/C: 19.9%
Second compound 0.316 µM, first compound 0.003 µM
  viability, T/C: 2.9%
Second compound 0.316 µM, first compound 0.00949 µM
  viability, T/C: 0.32%
Second compound 0.316 µM, first compound 0.03 µM
  viability, T/C: 0.26%
Second compound 0.316 µM, first compound 0.0949 µM
  viability, T/C: 0.88%
Second compound 0.316 µM, first compound 0.3 µM
  viability, T/C: 6.75%
Second compound 1 µM, first compound 0.000949 µM
  viability, T/C: 0.79%
Second compound 1 µM, first compound 0.003 µM
  viability, T/C: 0.61%
Second compound 1 µM, first compound 0.00949 µM
  viability, T/C: 0.36%
Second compound 1 µM, first compound 0.03 µM
  viability, T/C: 0.23%
Second compound 1 µM, first compound 0.0949 µM
  viability, T/C: 1.86%
Second compound 1 µM, first compound 0.3 µM
  viability, T/C: 4.83%
Second compound 3.16 µM, first compound 0.000949 µM
  viability, T/C: 1.18%
Second compound 3.16 µM, first compound 0.003 µM
  viability, T/C: 1.87%
Second compound 3.16 µM, first compound 0.00949 µM
  viability, T/C: 0.3%
Second compound 3.16 µM, first compound 0.03 µM
  viability, T/C: 0.21%
Second compound 3.16 µM, first compound 0.0949 µM
  viability, T/C: 1.26%
Second compound 3.16 µM, first compound 0.3 µM
  viability, T/C: 2.5%
Second compound 10 µM, first compound 0.000949 µM
  viability, T/C: 0.91%
Second compound 10 µM, first compound 0.003 µM
  viability, T/C: 2.49%
Second compound 10 µM, first compound 0.00949 µM
  viability, T/C: 0.22%
Second compound 10 µM, first compound 0.03 µM
  viability, T/C: 0.2%
Second compound 10 µM, first compound 0.0949 µM
  viability, T/C: 3.91%
Second compound 10 µM, first compound 0.3 µM
  viability, T/C: 3.86%

## CC1COCCN1c1cc(C2(S(C)(=N)=O)CC2)nc(-c2ccnc3[nH]ccc23)n1 (stereo unspecified) + CN1CCN(c2cc(C(=O)Nc3cc4cc(-c5cnn(C)c5)ccc4cn3)ccn2)CC1
Second compound 0.0316 µM
  IC50: 6130 nM
Second compound 0.1 µM
  IC50: 3010 nM
Second compound 0.316 µM
  IC50: < 31.6 nM
Second compound 1 µM
  IC50: < 31.6 nM
Second compound 3.16 µM
  IC50: < 31.6 nM
Second compound 10 µM
  IC50: < 31.6 nM
[1]
  viability, T/C: 126%
[2]
  viability, T/C: 125%
[3]
  viability, T/C: 105%
[4]
  viability, T/C: 102%
[5]
  viability, T/C: 63.5%
[6]
  viability, T/C: 38.3%
[7]
  viability, T/C: 127%
[8]
  viability, T/C: 122%
[9]
  viability, T/C: 110%
[10]
  viability, T/C: 89.1%
[11]
  viability, T/C: 46%
[12]
  viability, T/C: 28.6%
[13]
  viability, T/C: 17.1%
[14]
  viability, T/C: 16.4%
[15]
  viability, T/C: 17.9%
[16]
  viability, T/C: 14.8%
[17]
  viability, T/C: 16.3%
[18]
  viability, T/C: 13.3%
[19]
  viability, T/C: 1.37%
[20]
  viability, T/C: 1.72%
[21]
  viability, T/C: 2.93%
[22]
  viability, T/C: 1.07%
[23]
  viability, T/C: 2.89%
[24]
  viability, T/C: 7.44%
[25]
  viability, T/C: 1.86%
[26]
  viability, T/C: 3.02%
[27]
  viability, T/C: 2%
[28]
  viability, T/C: 1.65%
[29]
  viability, T/C: 3.13%
[30]
  viability, T/C: 7.42%
[31]
  viability, T/C: 1.07%
[32]
  viability, T/C: 1.83%
[33]
  viability, T/C: 2.32%
[34]
  viability, T/C: 0.91%
[35]
  viability, T/C: 2.14%
[36]
  viability, T/C: 3.43%

## O=C(c1cc(Cc2n[nH]c(=O)c3ccccc23)ccc1F)N1CCN(C(=O)C2CC2)CC1 + CN1CCN(c2cc(C(=O)Nc3cc4cc(-c5cnn(C)c5)ccc4cn3)ccn2)CC1
Second compound 0.0316 µM
  IC50: > 10000 nM
Second compound 0.1 µM
  IC50: > 10000 nM
Second compound 0.316 µM
  IC50: < 31.6 nM
Second compound 1 µM
  IC50: < 31.6 nM
Second compound 3.16 µM
  IC50: < 31.6 nM
Second compound 10 µM
  IC50: < 31.6 nM
[1]
  viability, T/C: 123%
[2]
  viability, T/C: 120%
[3]
  viability, T/C: 114%
[4]
  viability, T/C: 118%
[5]
  viability, T/C: 116%
[6]
  viability, T/C: 103%
[7]
  viability, T/C: 130%
[8]
  viability, T/C: 119%
[9]
  viability, T/C: 107%
[10]
  viability, T/C: 126%
[11]
  viability, T/C: 125%
[12]
  viability, T/C: 131%
[13]
  viability, T/C: 16.7%
[14]
  viability, T/C: 17.2%
[15]
  viability, T/C: 18.8%
[16]
  viability, T/C: 14.9%
[17]
  viability, T/C: 13.7%
[18]
  viability, T/C: 14.9%
[19]
  viability, T/C: 1.51%
[20]
  viability, T/C: 1.3%
[21]
  viability, T/C: 2.76%
[22]
  viability, T/C: 1.57%
[23]
  viability, T/C: 2.8%
[24]
  viability, T/C: 3.04%
[25]
  viability, T/C: 1.72%
[26]
  viability, T/C: 1.59%
[27]
  viability, T/C: 1.74%
[28]
  viability, T/C: 2.04%
[29]
  viability, T/C: 2.75%
[30]
  viability, T/C: 4.75%
[31]
  viability, T/C: 0.94%
[32]
  viability, T/C: 0.9%
[33]
  viability, T/C: 1.84%
[34]
  viability, T/C: 1.05%
[35]
  viability, T/C: 1.89%
[36]
  viability, T/C: 3.42%
